Test results from patent US12077503B2, “Substituted cyclic amides and their use as herbicides” (FMC CORPORATION, priority 2015, dated 2024).

Key:
Assay type in all cases: in vivo
corn (Zea mays) [1] = assay: Test G Post-Emergence Protocol; details: Zea mays, post-emergence, 312 h, read-out: Corn damage rating
Summary of the method: (§1)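 Damage was rated 13 days after treatment from 0 (none) to 100 (plant killed). Compound was applied as a spray at 15.625, 62.5 or 250 g/ha in 50:50 acetone/water containing 0.5% Tween 20, onto 8-day-old potted plants kept in a glasshouse (24/16 °C, 14 h light, 65% humidity).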

[2] = system: ivy-leaved morning glory (Ipomoea hederacea); assay: Test G Post-Emergence Protocol; details: Ipomoea, post-emergence, 312 h, read-out: Morningglory, Ivy-leaved damage rating
Summary of the method: as §1

[3] = system: velvetleaf (Abutilon theophrasti); assay: Test G Post-Emergence Protocol; details: Abutilon theophrasti, post-emergence, 312 h, read-out: Velvetleaf damage rating
Summary of the method: as §1

[4] = system: giant foxtail (Setaria faberi); assay: Test G Post-Emergence Protocol; details: Setaria faberi, post-emergence, 312 h, read-out: Foxtail, Giant damage rating
Summary of the method: as §1

[5] = system: barnyardgrass (Echinochloa crus-galli); assay: Test G Post-Emergence Protocol; details: Echinochloa crus-galli, post-emergence, 312 h, read-out: Barnyardgrass damage rating
Summary of the method: as §1

[6] = system: redroot pigweed (Amaranthus retroflexus); assay: Test G Post-Emergence Protocol; details: Amaranthus retroflexus, post-emergence, 312 h, read-out: Pigweed, Redroot damage rating
Summary of the method: as §1

corn (Zea mays) [7] = assay: Test G Pre-Emergence Protocol; details: Zea mays, pre-emergence, 312 h, evaluated after 13 days
Summary of the method: (§2)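 Visual injury (0–100) at day 13 after a single pre-emergence spray. Rates: 15.625, 62.5, 250 g/ha in acetone–water 50:50 with 0.5% Tween 20. Growth conditions: 24/16° C, 14 h light, 65% humidity.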

[8] = system: ivy-leaved morning glory (Ipomoea hederacea); assay: Test G Pre-Emergence Protocol; details: Ipomoea, pre-emergence, 312 h, evaluated after 13 days
Summary of the method: as §2

[9] = system: velvetleaf (Abutilon theophrasti); assay: Test G Pre-Emergence Protocol; details: Abutilon theophrasti, pre-emergence, 312 h, evaluated after 13 days
Summary of the method: as §2

[10] = system: giant foxtail (Setaria faberi); assay: Test G Pre-Emergence Protocol; details: Setaria faberi, pre-emergence, 312 h, evaluated after 13 days
Summary of the method: as §2

[11] = system: barnyardgrass (Echinochloa crus-galli); assay: Test G Pre-Emergence Protocol; details: Echinochloa crus-galli, pre-emergence, 312 h, evaluated after 13 days
Summary of the method: as §2

[12] = system: redroot pigweed (Amaranthus retroflexus); assay: Test G Pre-Emergence Protocol; details: Amaranthus retroflexus, pre-emergence, 312 h, evaluated after 13 days
Summary of the method: as §2

[13] = 15.625 g ai/ha, evaluated after 13 days (100=total damage to plant; 0=no damage to plant)
[14] = 62.5 g ai/ha, evaluated after 13 days, 100=total damage to plant, 0=no damage to plant
[15] = 250 g ai/ha, evaluated after 13 days, 100=total damage to plant, 0=no damage to plant

CC(C)Oc1cc(OC(F)(F)F)cc(C2CN(C)C(=O)C2C(=O)Nc2cccc(F)c2F)c1 (stereo not drawn) [Compound 1726]
30%: plant injury at 62.5 g/ha (corn (Zea mays) [1]; [14]) | pest or weed control at 62.5 g/ha [5, 14] | plant injury at 250 g/ha (corn (Zea mays) [7]; 250 g ai/ha, read-out: Corn damage rating (100=total damage to plant; 0=no damage to plant))
50%: pest or weed control at 62.5 g/ha ([10]; 62.5 g ai/ha, 100=total damage to plant, 0=no damage to plant, read-out: Foxtail, Giant damage rating) | pest or weed control at 62.5 g/ha ([11]; 62.5 g ai/ha, 100=total damage to plant, 0=no damage to plant, read-out: Barnyardgrass damage rating)
0%: pest or weed control at 15.625 g/ha [3, 13] | pest or weed control at 62.5 g/ha [3, 14] | pest or weed control at 15.625 g/ha [4, 13] | pest or weed control at 15.625 g/ha [5, 13] | pest or weed control at 62.5 g/ha [6, 14] | plant injury at 15.625 g/ha (corn (Zea mays) [7]; 15.625 g ai/ha, read-out: Corn damage rating (100=total damage to plant; 0=no damage to plant)) | plant injury at 62.5 g/ha (corn (Zea mays) [7]; 62.5 g ai/ha, 100=total damage to plant, 0=no damage to plant, read-out: Corn damage rating) | pest or weed control at 15.625 g/ha ([8]; 15.625 g ai/ha, read-out: Morningglory, Ivy-leaved damage rating (100=total damage to plant; 0=no damage to plant)) | pest or weed control at 62.5 g/ha ([8]; 62.5 g ai/ha, 100=total damage to plant, 0=no damage to plant, read-out: Morningglory, Ivy-leaved damage rating) | pest or weed control at 250 g/ha ([8]; 250 g ai/ha, read-out: Morningglory, Ivy-leaved damage rating (100=total damage to plant; 0=no damage to plant)) | pest or weed control at 15.625 g/ha ([9]; 15.625 g ai/ha, read-out: Velvetleaf damage rating (100=total damage to plant; 0=no damage to plant)) | pest or weed control at 62.5 g/ha ([9]; 62.5 g ai/ha, 100=total damage to plant, 0=no damage to plant, read-out: Velvetleaf damage rating) | pest or weed control at 250 g/ha ([9]; 250 g ai/ha, read-out: Velvetleaf damage rating (100=total damage to plant; 0=no damage to plant)) | pest or weed control at 15.625 g/ha ([11]; 15.625 g ai/ha, read-out: Barnyardgrass damage rating (100=total damage to plant; 0=no damage to plant)) | pest or weed control at 15.625 g/ha ([12]; 15.625 g ai/ha, read-out: Pigweed, Redroot damage rating (100=total damage to plant; 0=no damage to plant)) | pest or weed control at 62.5 g/ha ([12]; 62.5 g ai/ha, 100=total damage to plant, 0=no damage to plant, read-out: Pigweed, Redroot damage rating)
80%: pest or weed control at 250 g/ha ([10]; 250 g ai/ha, read-out: Foxtail, Giant damage rating (100=total damage to plant; 0=no damage to plant))
20%: pest or weed control at 250 g/ha [3, 15] | pest or weed control at 15.625 g/ha [6, 13]
40%: pest or weed control at 250 g/ha [6, 15]
70%: plant injury at 250 g/ha (corn (Zea mays) [1]; [15]) | pest or weed control at 250 g/ha [2, 15] | pest or weed control at 62.5 g/ha [4, 14] | pest or weed control at 250 g/ha [4, 15] | pest or weed control at 250 g/ha [5, 15] | pest or weed control at 250 g/ha ([11]; 250 g ai/ha, read-out: Barnyardgrass damage rating (100=total damage to plant; 0=no damage to plant))
10%: plant injury at 15.625 g/ha (corn (Zea mays) [1]; [13]) | pest or weed control at 15.625 g/ha [2, 13] | pest or weed control at 62.5 g/ha [2, 14] | pest or weed control at 15.625 g/ha ([10]; 15.625 g ai/ha, read-out: Foxtail, Giant damage rating (100=total damage to plant; 0=no damage to plant)) | pest or weed control at 250 g/ha ([12]; 250 g ai/ha, read-out: Pigweed, Redroot damage rating (100=total damage to plant; 0=no damage to plant))
